Data as given in patent US20230183751A1, “HDR ENHANCERS” (OXFORD GENETICS LIMITED, priority 2020, published 2023).

Tests used:
HEK reporter cell line = assay: cell-viability assay with alamar blue reagent; type: cell-based, human; settings: 72 hours
Experimental: To investigate the effect of this library on HDR efficiency and to identify novel molecules which would increase the HDR mediated gene editing efficiency, first we carried out a cell-viability assay using the HEK reporter cell line and alamar blue reagent. The experiment was performed to rule out any toxicity associated with the small molecule library. Briefly, 3 different concentration of inhibitors (0.1 μM, 1 μM and 10 μM) were added in the cells in a 96 well plate format and plates were incubated for 72 hours. After 72 hours, the media were replaced with alamar blue containing media and the plates were further incubated for 3 hours and then read on a Fluorstar omega plate reader. The table gives the results obtained with the subsequently-selected inhibitors, together with a range of other potential inhibitors.

[1] = test system: HDR in HEK293 reporter cell line (truncated EGFP); assay: HDR assay with paired nickases Cas9n D10A RNP and ssOligo donor, EGFP-positive cells by FACS; type: cell-based, human; settings: FIG. 3; for dose-dependency of HDR efficiency: three concentrations (low, medium, high); for concentration with highest HDR efficiency: three concentrations tested
Experimental: More specifically, an HDR assay using a HEK reporter cell line containing truncated EGFP may be used. These cells may be transfected with a transfection complex containing the CRISPR endonuclease and a donor sequence. Cas9 RNPs may be prepared by following the manufacturers' guidelines. The transfection complex may be prepared by adding Cas9 RNP or Cas9 nickase RNP, along with ssOligo donor and lipofectamine 2000 in Optimem. Reagents should be mixed well and incubated for 20 mins. After 20 mins, 50 μlof transfection complex (at an optimal concentration—see the Examples herein) may be transferred in a 96 well plate and 50 μlHEK293 reporter cell line suspension (9×10^5 cells/ml) added followed by 50 μl of cell culture medium containing appropriate concentration(s) of inhibitor(s). Cells may be incubated at 37° C. in a CO2 incubator for 24 hours and then inhibitor-containing media should be replaced with fresh media without inhibitor. Cells are then further incubated for 48 hours. After 48 hours, cells may be trypsinized and resuspended in PBS containing 10% FBS. Samples may be run on FACS and the percentage of EGFP in the population measured. Presence of EGFP directly correlates with HDR efficiency. […]
To understand if inhibitors have any influence on HDR mediated by paired nickases, we carried out an HDR assay in the presence of the small molecule inhibitor library. Briefly, in vitro reconstituted Cas9n D10A RNP with gRNA-X1 and gRNA-X2 was transfected into the reporter cell line along with ssOligo donor in the presence of different small molecule inhibitors. Inhibitor-containing media was replaced with fresh media after 24 hours and the cells were then further incubated for 48 hours. After 48 hours, the cells were trypsinized and resuspended in 10% FBS containing PBS and analysed by FACS. EGFP-positive cells were monitored; these represented successful HDR events. […]

Structure (SMILES) | % survival (HEK reporter cell line; 0.1 μM inhibitor) [%] | % survival (HEK reporter cell line; 1 μM inhibitor) [%] | % survival (HEK reporter cell line; 10 μM inhibitor) [%] | dose-dependency of HDR efficiency [1] | concentration with highest HDR efficiency [1] [µM]
Cl.O=C([C@@H](Cc1cccc(C(F)(F)F)c1)NS(=O)(=O)c1cc(F)c2c(c1)CCNC2)N1CCCC1 [(R)-PFI2 hydrochloride] | 102.58 ± 0.88 | 101.51 ± 4.1 | 96.42 ± 0.64 | dose-dependent increases in HDR efficiency | 20
Clc1cc2c(NC3CCCC3)nnc(-c3ccncc3)c2cc1Cl [A196] | 105.84 ± 0.05 | 107.75 ± 6.83 | 107.43 ± 0.21 | dose-dependent increases in HDR efficiency | 20
CN(C)[C@H]1CN(C2CCc3cccc(F)c32)C[C@@H]1c1ccc(N2CCN(S(C)(=O)=O)CC2)cc1 (some centres unmarked) [A395] | 100.35 ± 1.4 | 103.27 ± 0.32 | 87.94 ± 9.49 | did not show any significant dose-dependency | –
O=C(Nc1c[nH]nc1-c1nc2cc(CN3CCOCC3)ccc2[nH]1)NC1CC1 [AT9283] | – | – | – | moderate decreases in HDR efficiency upon increasing the inhibitor concentration | 0.05
CCN(C(=O)CO)[C@H]1CN(/C(=N\C#N)Nc2cccc(OC(F)F)c2)N=C1c1ccc(Cl)c(Cl)c1 [BAY598] | 102.45 ± 0.9 | 102.92 ± 0.42 | 101.44 ± 8.52 | dose-dependent increases in HDR efficiency | 20
COc1ccc(CCC(=O)Nc2nc3ccc(Cl)cc3s2)cc1OC [KY02111] | 100.52 ± 2.05 | 100.86 ± 1.83 | 95.18 ± 2.27 | did not show any significant dose-dependency | –
O=c1cc(N2CCOCC2)oc2c1ccc1ccccc12 [NU7026] | 100.08 ± 4.01 | 100.14 ± 4.13 | 83.17 ± 1.44 | – | –
O=c1cc(N2CCOCC2)oc2c(-c3cccc4c3sc3ccccc34)cccc12 [NU7441] | 103.58 ± 4.44 | 88.88 ± 3.55 | 22.95 ± 0.98 | dose-dependent increases in HDR efficiency | 2
CCCCc1nc2cc(/C=C/C(=O)NO)ccc2n1CCN(CC)CC [SB939] | 80.99 ± 1.01 | 15.56 ± 2.26 | 2.25 ± 0.31 | moderate decreases in HDR efficiency upon increasing the inhibitor concentration | 0.05
